Results from patent US11549115B2, “Compositions and methods for regulated gene expression” (YALE UNIVERSITY, priority 2017, dated 2023).

Experiments:
[1] = test system: Bt::tetR P1TDP^GH023-NanoLuc; format: in vivo, mice
Experimental: 8-10 week old SPF Rag^−/− mice (Jackson Laboratories) (n=7) were colonized by oral gavage with 1×10^9 CFU of B. thetaiotaomicron TetR-P1TDP^GH023-NanoLuc. Fecal pellets were collected daily after gavage and processed as described above. The supernatant was used for CFU determination by plating dilutions on BHI-blood agar plates containing gentamicin and erythromycin, and 500 μL was used for luminescence measurements (described below).
(§1) The 500 μL collected from the resuspended fecal supernatant was centrifuged at 21,130×g for 3 minutes to pellet bacterial cells, which were then resuspended in 50 μL 1× BugBuster (Novagen) in 1×PBS and lysed by one round of freeze-thaw and 10 minutes of nutation at 26° C. Samples were centrifuged at 21,130×g for 10 minutes at 4° C., and 10 μL of the supernatant was mixed with an equal volume of NanoLuc Reaction Buffer to induce luminescence production. Luminescence was measured after a 5 minute incubation at 26° C. on a plate reader (BioTek Synergy H1) with an integration time of 1 second at a gain setting of 100. Luminescence values were normalized to colony forming units (CFUs) determined by dilution plating of the resuspended fecal supernatant on BHI-blood agar plates containing gentamicin and erythromycin.

sialidase BT0455 = assay: Sialidase activity in murine fecal samples (pNP-SA hydrolysis, LC-MS); format: in vivo, Bacteroides thetaiotaomicron; settings: mice carrying Bt^RS
Experimental: Groups of 6 germ-free Swiss Webster mice were orally gavaged with 1×10^9 CFU of the desired B. thetaiotaomicron strain. Fecal samples (˜100-200 mg) were collected daily for 12 days. aTC (100 μg/mL) was administered in drinking water for 12 hours after fecal collection on day 1. Fecal samples were homogenized in 1 mL of 1× tris-buffered saline (TBS) with a single 5 mm stainless steel bead using a bead beater (BioSpec Products) at 26° C. for 1 minute on the high setting, followed by vortexing at top speed for 8 minutes. Samples were then centrifuged at 500×g for 1 minute to pellet fibrous and insoluble matter. […]
Bacterial cells (collected and stored as described above) were lysed through one round of freeze-thaw followed by nutation for 10 minutes at 26° C. […] Quantification of the enzyme reaction product, p-nitrophenol (pNP), was identical to the LC-MS analysis of aTC described above, but with reduced injection volume (5 μL) and methanol replacing acetonitrile as solvent B for the reversed phase chromatography. […] Linear fit values were normalized to amount of protein in the cellular lysates added to each reaction, which was determined by Bradford. […]

[2] = test system: Bt::tetR P1TDP^GH023-NanoLuc; assay: Fecal luminescence in monocolonized gnotobiotic mice; format: in vivo
Experimental: Germ-free Swiss Webster mice were orally gavaged with 1×10^9 CFU of Bt::tetR P1TDP^GH023-NanoLuc and colonization was allowed to stabilize for at least 7 days prior to the start of the experiment. Fecal pellets were collected every day, and groups of mice were given aTC in the drinking water at various concentrations for 48 hours after stool collection on Day 3 and Day 17. Mice belonging to the same treatment group were co-housed for the duration of the experiment. To obtain samples for luminescence production, fecal pellets and intestinal lumen (˜100-200 mg) were homogenized in 1 mL of 1×PBS with a single 5 mm stainless steel bead using a bead beater (BioSpec Products) at 26° C. for 1 minute on the high setting, followed by vortexing at top speed for 8 minutes. Samples were centrifuged at 500×g for 1 minute to pellet fibrous and insoluble matter. The supernatant was used for CFU determination by plating dilutions on BHI-blood agar plates containing gentamicin and erythromycin, and 500 μL was used for luminescence measurements (described below).
as §1

Cc1c2c(c(O)c3c(O)cccc13)C(=O)[C@]1(O)C(=O)C(C(N)=O)=C(O)[C@@H](N(C)C)[C@@H]1C2 [aTC, Anhydrotetracycline]
return of fecal luminescence to baseline after aTC removal ([1]; SPF Rag-/- mice): 3 days
increase in fecal luminescence ([1]; SPF Rag-/- mice, aTC in drinking water for 48 hours): 4,800 fold
effect on stability of B. thetaiotaomicron in a complete murine microbiota ([1]; mouse, in vivo): does not affect the stability of B. thetaiotaomicron
growth of Bacteroides in aTC (Bacteroides): grow at wildtype rates
sialidase activity again undetectable after aTC removal (sialidase BT0455): 4 days
impact on B. thetaiotaomicron stability in the gut ([2]; CFU): do not impact B. thetaiotaomicron stability in the gut
aTC concentration at which detectable responses start ([2]; drinking water, within 24 hours): 0.2 to 0.5 µg/mL
complete repression after aTC removal ([2]; monocolonized mice): 9 days
increase of luminescence in fecal pellets ([2]; monocolonized mice, within 24 hours of aTC addition): ~1,000 fold
range of commensal gene expression modulated inside the gut by varying aTC concentrations ([2]; mouse, in vivo): 3 orders of magnitude
aTC concentration providing maximal gene induction in vivo ([2]; sigmoidal fit): 100 µg/mL
